This is an account of results in ChEMBL document CHEMBL1201862, “PubChem BioAssay data set” (2004).

Among the test systems are KM-20L2; SNB-78; HOP-18; XF498; DLD-1; DMS-273; LXFL 529; DMS-114.
Common to all, as to assay: NCI anticancer screen, dose series, 48 h

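Five concentrations, 48 hours, 96-well plates. The concentration for 50% growth inhibition is given as GI50.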 The source made the active and inactive calls. Rule as the data show it: active = GI50 up to about 1.1 µM and inactive = higher.

For the molecule `Cc1ccc(C(=O)O/N=C2/CCCC/C2=C\c2ccccc2)cc1`, the GI50 in the assay with KM-20L2 was 83.9 µM (inactive); in the assay on SNB-78 it was 15.6 µM (inactive); in the assay with HOP-18, > 100 µM (inactive); with XF498, 39.4 µM (inactive); in the assay on DLD-1, 78.5 µM (inactive); with DMS-273, 27.7 µM (inactive). Besides, in the assay with LXFL 529, the GI50 was 16.9 µM (inactive).

On to `CCN(CC)CCC(=O)N1CCc2c([nH]c3ccccc23)C1c1cccnc1` (stereo not drawn), for which the GI50 in the assay with KM-20L2, with SNB-78, with DMS-114, in the assay on HOP-18, in the assay with XF498 and in the assay on DLD-1 was > 100 µM (inactive) each time. Also, the GI50 in the assay on DMS-273 and in the assay on LXFL 529 was > 100 µM (inactive) throughout.

In the case of `Cc1ccc(S(=O)(=O)c2ccc(C)cc2[N+](=O)[O-])cc1`, the GI50 is > 100 µM (inactive) with KM-20L2; 64.4 µM (inactive) with SNB-78; 22.4 µM (inactive) in the assay with DMS-114; > 100 µM (inactive) in the assay with HOP-18; > 100 µM (inactive) in the assay on DLD-1; > 100 µM (inactive) in the assay on DMS-273. Also, in the assay with LXFL 529, the GI50 was 44.3 µM (inactive).

Take `COc1ccc(C/C(=N/O)C(=O)NCCc2cc(Br)c(OCCCN(C)C)c(Br)c2)cc1Br` [APLYSAMINE 2]: the GI50 was 18.5 µM (inactive) in the assay with KM-20L2; 18.5 µM (inactive) in the assay with SNB-78; 18.5 µM (inactive) with DMS-114; 0.0528 µM (active) in the assay with HOP-18; 12.9 µM (inactive) in the assay on XF498; 7.8 µM (inactive) with DLD-1. Moreover, the GI50 in the assay with DMS-273 was 0.791 µM (active); in the assay with LXFL 529, 16.1 µM (inactive).

For the molecule `CC[C@@]1(O)C(=O)OCc2c1cc1n(c2=O)Cc2cc3ccccc3nc2-1` [CAMPTOTHECIN], the GI50 with KM-20L2 was 0.0776 µM (active); in the assay with SNB-78, 0.333 µM (active); in the assay with DMS-114, 0.0206 µM (active); in the assay on HOP-18 it was 0.122 µM (active); in the assay with XF498, 0.0483 µM (active); with DLD-1, 0.243 µM (active). Further, the GI50 in the assay with DMS-273 was < 0.01 µM (active); in the assay on LXFL 529 it was 0.372 µM (active).

Take `C=C1C(=O)OC2C1C(OC(=O)/C(=C/C)COC(C)=O)CC1(CO1)C1C(OC(=O)/C(=C/C)CO)C=C(C)C21` (stereo not drawn): the GI50 was 2.52 µM (inactive) in the assay with KM-20L2; 1.65 µM (inactive) in the assay with SNB-78; 1.85 µM (inactive) in the assay on DMS-114; 1.34 µM (inactive) in the assay on HOP-18; 1.45 µM (inactive) with XF498; 1.34 µM (inactive) in the assay on DLD-1. In addition, the GI50 in the assay on DMS-273 was 1.73 µM (inactive); in the assay with LXFL 529, 0.427 µM (active).

As to `C(=C\c1c2oc(-c3ccccc3)cc(-c3ccccc3)c-2c2ccccc12)/C=C1\c2ccccc2-c2c(-c3ccccc3)cc(-c3ccccc3)[o+]c21.[O-][Cl+3]([O-])([O-])[O-]`, the GI50 in the assay with KM-20L2, in the assay with SNB-78, with DMS-114, in the assay on XF498, in the assay with DLD-1 and in the assay on DMS-273 was > 100 µM (inactive) each time. Also, in the assay on LXFL 529, the GI50 was > 100 µM (inactive).

Turning to `O=C1/C(=C/c2ccc(Cl)cc2)CCC1CNc1ccc(Cl)cc1` (stereo not drawn), the GI50 was 1.46 µM (inactive) in the assay with KM-20L2; 23.7 µM (inactive) in the assay with SNB-78; 3.94 µM (inactive) in the assay with DMS-114; 33.9 µM (inactive) in the assay with HOP-18; 12.8 µM (inactive) in the assay with XF498; 1.68 µM (inactive) in the assay with DLD-1. In addition, the GI50 was 1.73 µM (inactive) in the assay with DMS-273 and 0.711 µM (active) with LXFL 529.

As for `CC(C)C(=O)/C=C/c1ccc(Cl)c(Cl)c1`, the GI50 in the assay with KM-20L2 is 19.2 µM (inactive); in the assay with SNB-78, 34.8 µM (inactive); in the assay with DMS-114, 19.2 µM (inactive); in the assay with HOP-18, 11.4 µM (inactive); in the assay on XF498, 12.5 µM (inactive); in the assay with DLD-1 it was 14.6 µM (inactive). Besides, the GI50 in the assay with LXFL 529 was 18.7 µM (inactive).
